# Where no end group is shown, it is not given here. The star is where a group is joined. Palmitoyl = CCCCCCCCCCCCCCCC(=O)*
# How the values were obtained:
# P388D1 = experiment: Induction of class II CMH molecules on P388D1 cell line, flow cytometry; type: cell-based, murine; settings: 50 μM, stimulated for 24 hours
# Experimental: (§1) Principle: to check the induction of class II CMH molecules on cell lines (P388D1 and WEHI3: murine myelomonocytes) with the above-mentioned peptides.
# (§2) Procedure. The cells are cultured the day before at a rate of 3×10^5 cells per well in 24-well culture plates (NUNC). The following day, the cells are stimulated with the various lipopeptide and peptide constructs at a final concentration of 50 μM in 1 ml of medium. After incubation for 24 hours at 37° C. in an atmosphere saturated with 5% CO2, the cells are recovered and incubated for 1 hour at 4° C. with 3 μg of a biotinylated mouse anti-I-Ad monoclonal antibody (Pharmingen, San Diego, USA). After revelation for 30 minutes with FITC streptavidin used at a dilution of 1:100 (Sigma, St. Louis, USA), the expression of class II molecules is determined by flow cytometry.
# WEHI3 = experiment: Induction of class II CMH molecules on WEHI3 cell line, flow cytometry; type: cell-based, murine; settings: 50 μM, stimulated for 24 hours
# Experimental: as §1, §2
# splenocytes = experiment: Expression of class II CMH molecules and Fc-γ receptors on splenocytes taken from an animal; type: cell-based, Balb/c mouse; settings: 50 μM, 24 hours
# Experimental: (§3) Principle: to evaluate the activity of the vectorized agonist on cells taken from an animal and treated in vitro (in order to assess the value of a subsequent in vivo study).
# (§4) Procedure. The splenocytes and peritoneal cells taken from an animal (Balb/c mouse) are re-cultured at a rate of 2.5×10^6 splenocytes and […] peritoneal cells per well in 24-well plates (NUNC) stimulated with 50 μM of the different peptides in a final volume of 1 ml. After stimulation for 24 hours, the cells are labelled with the anti IA^d monoclonal antibody described in the preceding paragraph, according to the same protocol. To detect the Fc-γ R, the cells are labelled with 1 μg of a rat anti Fc-γ R monoclonal antibody (Pharmingen, San Diego, USA). Next, the cells are incubated for ½ hour with a rat anti IgG biotinylated polyclonal antibody. The revelation is then carried out with FITC streptavidin used at a dilution of 1:100 (Sigma, St. Louis, USA). The expression of Fc-γ R is determined by flow cytometry.
# peritoneal cells = experiment: Expression of class II CMH molecules and Fc-γ receptors on peritoneal cells taken from an animal; type: cell-based, Balb/c mouse; settings: 50 μM, 24 hours, flow cytometry
# Experimental: as §3, §4
# [1] = system: splenocytes taken from mice 129 (Wild type: WT); experiment: Involvement of the IFN-γ receptor: IA^d and Fc-γ R on splenocytes of wild type mice 129; type: cell-based; settings: stimulation for 24 hours, flow cytometry
# Experimental: as §4
# (§5) Principle. to confirm that the biological activity observed was effectively associated with a stimulation of the IFN-γ receptor, we repeated the same experiments, in parallel on splenocytes taken from mice 129 (Wild type: WT) and on cells taken from mice 129 no longer expressing the alpha chain of the IFN-γ receptor (KO mice).
# (§6) Procedure. The experimental protocol followed is identical to that described in paragraph 2 above.
# [2] = system: cells taken from mice 129 no longer expressing the alpha chain of the IFN-γ receptor (KO mice); experiment: Involvement of the IFN-γ receptor: IA^d and Fc-γ R on cells of mice lacking the alpha chain of the IFN-γ receptor; type: cell-based; settings: stimulation for 24 hours, flow cytometry
# Experimental: as §4, §5, §6
# [3] = system: human colon carcinoma cells (COLO 205); experiment: Induction of HLA-DR on COLO 205 cell line, flow cytometry; type: cell-based; settings: COLO 205, 50 μM
# Experimental: Principle: human colon carcinoma cells (COLO 205) are analysed for their ability to express HLA-DR after having been stimulated with the various peptide constructs.
# Procedure. The cell line COLO 205 is cultured at a rate of 3×10^5 cells per well in a 24-well culture plate (NUNC). The following day, the cells are stimulated with the various peptide constructs at a final concentration of 50 μM in 1 ml of medium, and are incubated at 37° C. for 24 hours. The cells are then recovered and labelled using 3 μg of an anti HLA-DR mouse biotinylated monoclonal antibody (clone L243). After revelation with FITC streptavidin, the cells are analysed by flow cytometry.
# [4] = system: human peripheral blood mononuclear cells (PBMC); experiment: Induction of HLA-DR, ICAM-1 and VCAM-1 on human PBMC; type: cell-based; settings: 24 hours
# Experimental: Principle. In the light of the results obtained on the human cell line and on human primary cultures, the immunostimulatory potential of MuL was evaluated on human cells taken directly from a healthy donor.
# Procedure. PBMCs are isolated from a bag of blood and the cells are then cultured and stimulated for 24 hours with 25 and 50 μM of MuSL or MuL in a final volume of 1 ml. The cells are then recovered and labelled for the expression of VCAM-1, ICAM-1 and HLA-DR according to the protocol already described above. Finally, the cells are analysed by flow cytometry.
# [5] = system: L929 cells infected with the VSV virus; type: cell-based, mouse; settings: 1 to 10 μM
# [6] = system: splenocytes stimulated with anti-CD40 and IL-4; experiment: Inhibition of IL-4 activity: anti-CD40 + IL-4 proliferation of splenocytes, tritiated thymidine; type: cell-based, Balb/c mice; settings: 10 μM
# Excerpt: It is commonly described that the immunomodulatory potential of IFN-γ lies in its ability to polarize the establishment of a type-1 T helper (Th1) response, while at the same time inhibiting the development of a type-2 T helper (Th2) response. This inhibitory action on the polarization of the Th2 response takes place mainly via inhibition of the activity of IL-4. […] The stimulation of splenocytes with an anti-CD40 antibody (antibody directed against a surface cell label: CD40) and IL-4 induces a proliferation of the murine B cells, following a synergistic action between the CD40 and IL-4 stimulation (Hasbold et al. 1994).
# The splenocytes taken from Balb/c mice are cultured and stimulated with anti-CD40 (10 μg/ml) and IL-4 (10 U/ml). 10 μM of the synthetic agonist of IFN-γ (MuL) or of its control lipopeptide (MuSL) are added. After stimulation for 24 hours, tritiated thymidine is added at a rate of 0.5 μCurie per well. After incubation for 18 hours, the cells are filtered off and the incorporation of tritiated thymidine is evaluated. This incorporation is proportional to the cell proliferation.
# murine splenocytes = experiment: Induction of class II CMH molecules (IA^b) on murine splenocytes by lipopeptide fragments (FIG. 12A); type: cell-based, 129 Sv mice; settings: murine splenocytes, 24 hours, different concentrations
# Experimental: (§7) Fresh splenocytes are obtained from 7-week-old female 129 Sv mice. The COLO 205 human colon carcinoma lines are obtained from the ATCC (American Type Culture Collection). The splenocytes and COLO 205 cells are maintained in RPMI 1640 (Gibco BRL, Courbevoie, France), supplemented with 10% FCS (Gibco BRL), sodium pyruvate (Sigma, St. Louis, USA) and incubated at 37° C. in 5% CO2.
# (§8) The cells were stimulated for 24 hours with different concentrations of MuL, L-mIFNγ 113-132, L-mIFNγ 122-132 or MuSL. The murine splenocytes and COLO 205 cells were labelled for the expression of II MHC with 1 μg of anti-mouse IA^b FITC monoclonal antibody (mAb) (Pharmingen, San Diego, USA) and 10 μl of anti-HLA-DR clone TAL.1B5 mouse FITC mAb (Cymbus Biotechnology Ltd, Hants, UK), respectively. A negative control mouse FITC IgG1 (DAKO S. A., Trappes, France) was used as control isotype. The cells were incubated for 1 hour at 4° C. in PBS, 10% FCS and then washed, and the expression of II MHC was analysed by flow cytometry using a Coulter EPILS II cytometer (Coulter, Hialeah, Fla., USA) at a rate of 10,000 events per sample.
# (§9) FIG. 12: Induction of class II CMH molecules by human or murine cells stimulated with lipopeptides derived from IFN-γ. The murine splenocytes (A) and the COLO 205 human cell line (B) were incubated for 24 hours with different concentrations of lipopeptides derived from IFN-γ. The cells were labelled with a monoclonal antibody directed against the class II CMH molecules, and analysed by flow cytometry. The ratio between the average fluorescence intensity of the cells treated with the lipopeptides and between the average fluorescence intensity of the untreated cells is indicated on the y-axis. The lipopeptide concentration is indicated in μM on the x-axis; MuL: solid circles; MuSL : hollow circles; L-mIFN 113-132: triangles; L-mIFN 122-132: X.
# COLO 205 human cell line = experiment: Induction of HLA-DR on COLO 205 cells by lipopeptide fragments (FIG. 12B); type: cell-based; settings: COLO 205, 24 hours, different concentrations
# Experimental: as §7, §8, §9
substance,measurement,setting,value
"MuSL: control ""scrambled"" lipopeptide: MuL in which the order of the amino acids has been rearranged, Ac-K(Pam) (Ac-K(Palmitoyl)PSRENQNAVKIQKLSVVLRREQKHRVERLAFRNQSLPF)","percentage of class II CMH detected by flow cytometry, P388D1",P388D1,13%
same,"percentage of class II CMH detected by flow cytometry, WEH1",WEHI3,15%
same,splenocytes II CMH (%),splenocytes; flow cytometry,14%
same,splenocytes RFc (%),splenocytes; flow cytometry,15%
same,increase of IA^d and of Fc-γ R on the treated cells,splenocytes; splenocytes and peritoneal cells,no notable activity
same,peritoneal cells II CMH (%),peritoneal cells,13%
same,peritoneal cells RFc (%),peritoneal cells,20%
same,WT mice II CMH (%),[1],4%
same,WT mice RFc (%),[1],2%
same,KO mice II CMR (%),[2],4%
same,KO mice RFc (%),[2],3%
same,induction of the expression of HLA-DR,[3],no activity
same,% HLA-DR,"[3]; 24 hours, flow cytometry",8.9%
same,percentage of ICAM-1 detected on PBMCs,[4]; 25 μM,29.4%
same,percentage of VCAM-1 detected on PBMCs,[4]; 25 μM,39.7%
same,percentage of HLA-DR detected on PBMCs,[4]; 50 μM,58.3%
same,percentage of ICAM-1 detected on PBMCs,[4]; 50 μM,32%
same,percentage of VCAM-1 detected on PBMCs,[4]; 50 μM,86.9%
same,effect on viral lysis (FIG. 2),[5],no effect on viral lysis
same,effect on the synergistic anti-CD40 + IL-4 proliferation (FIG. 4),[6],no effect
same,increase in class II CMH molecules (FIG. 12A),murine splenocytes,neither L-mIFN-γ 122-132 nor MuSL are active
same,increase in class II CMH molecules (FIG. 12B),COLO 205 human cell line,neither L-mIFN-γ 122-132 nor MuSL are active

# — patent US6683052B1, “Lipopeptides containing an interferon-γ fragment, and uses thereof in pharmaceutical compositions” (Institut National de la Sante et de la Recherche Medicale …, priority 1998, dated 2004)
